Laboratory results: patent US12473290B2, “Imidazopyridazine compounds useful as modulators of IL-12, IL-23 and/or IFN alpha responses” (BRISTOL-MYERS SQUIBB COMPANY, priority 2019, dated 2025)

Legend:
[1] = Kit225 T Cell Assay, IL-23-stimulated STAT-dependent luciferase reporter; format: cell-based; settings: Kit225 T cells, 20 ng/mL human recombinant IL-23, 5-6 hours, luciferase expression
Method: (§1) Kit225 T cells with a stably-integrated STAT-dependent luciferase reporter were plated in RPMI (Gibco) containing 10% heat-inactivated FBS (Gibco) and 100 U/mL PenStrep (Gibco). The cells were then stimulated with either 20 ng/mL human recombinant IL-23 or 200 U/mL human recombinant IFNα (PBL InterferonSource) for 5-6 hours. Luciferase expression was measured using the STEADY-GLO® Luciferase Assay System (Promega) according to the manufacturer's instructions. Inhibition data were calculated by comparison to no inhibitor control wells for 0% inhibition and non-stimulated control wells for 100% inhibition. Dose response curves were generated to determine the concentration required to inhibit 50% of cellular response (IC50) as derived by non-linear regression analysis.

[2] = tested on: IFNα Kit225 Reporter (Kit225 T cells with a stably-integrated STAT-dependent luciferase reporter, stimulated with IFNα); experiment: Kit225 T Cell Assay, IFNα-stimulated STAT-dependent luciferase reporter; format: cell-based; settings: 200 U/mL human recombinant IFNα, 5-6 hours, luciferase expression
Method: as §1

| IC50 [1] | IC50 [2] | SMILES |
| --- | --- | --- |
| 140 nM | 80 nM | CC(C)(C)NC(=O)c1ccc(Nc2cc(NCC3CC3)nn3c(C#N)cnc23)nc1 [Example 52, N-tert-butyl-6-({3-cyano-6-[(cyclopropylmethyl)amino]imidazo[1,2-b]pyridazin-8-yl}amino)pyridine-3-carboxamide] |
| 650 nM | 870 nM | CN(CCc1ccccn1)C(=O)c1ccc(Nc2cc(N[C@@H]3CCCC[C@H]3O)nn3c(C#N)cnc23)nc1N(C)C [Example 31, 6-[(3-cyano-6-{[(1R,2R)-2-hydroxycyclohexyl]amino}imidazo[1,2-b]pyridazin-8-yl)amino]-2-(dimethylamino)-N-methyl-N-[2-(pyridin-2-yl)ethyl]pyridine-3-carboxamide] |
| 350 nM | 370 nM | CC(C)C(=O)N1CCN(c2cccc(Nc3cc(N[C@@H]4CCCC[C@H]4O)nn4c(C#N)cnc34)n2)CC1 [Example 60, 6-{[(1R,2R)-2-hydroxycyclohexyl]amino}-8-({6-[4-(2-methylpropanoyl)piperazin-1-yl]pyridin-2-yl}amino)imidazo[1,2-b]pyridazine-3-carbonitrile] |
| 660 nM | 930 nM | N#Cc1cnc2c(Nc3cccc(N4CCCCCC4=O)n3)cc(N[C@@H]3CCCC[C@H]3O)nn12 [Example 59, 6-{[(1R,2R)-2-hydroxycyclohexyl]amino}-8-{[6-(2-oxoazepan-1-yl)pyridin-2-yl]amino}imidazo[1,2-b]pyridazine-3-carbonitrile] |
| 500 nM | 760 nM | C[C@@H]1COC[C@H](C)N1C(=O)c1ccc(Nc2cc(N[C@H]3CCCC[C@@H]3O)nn3c(C#N)cnc23)nc1OCC(F)F [Example 36, 8-{[6-(2,2-difluoroethoxy)-5-[(3R,5S)-3,5-dimethylmorpholine-4-carbonyl]pyridin-2-yl]amino}-6-{[(1S,2S)-2-hydroxycyclohexyl]amino}imidazo[1,2-b]pyridazine-3-carbonitrile] |
| 150 nM | 160 nM | N#Cc1cnc2c(Nc3ccc(C(=O)NCC4CC4)cn3)cc(NCC3CC3)nn12 [Example 51, 6-({3-cyano-6-[(cyclopropylmethyl)amino]imidazo[1,2-b]pyridazin-8-yl}amino)-N-(cyclopropylmethyl)pyridine-3-carboxamide] |
| 550 nM | 810 nM | N#Cc1cnc2c(Nc3cccc(N4C(=O)NC5(CCCCC5)C4=O)n3)cc(N[C@@H]3CCCC[C@H]3O)nn12 [Example 58, 8-[(6-{2,4-dioxo-1,3-diazaspiro[4.5]decan-3-yl}pyridin-2-yl)amino]-6-{[(1R,2R)-2-hydroxycyclohexyl]amino}imidazo[1,2-b]pyridazine-3-carbonitrile] |
| 350 nM | 500 nM | CC(=O)N1CCN(c2cccc(Nc3cc(N[C@@H]4CCCC[C@H]4O)nn4c(C#N)cnc34)n2)CC1 [Example 64, 8-{[6-(4-acetylpiperazin-1-yl)pyridin-2-yl]amino}-6-{[(1R,2R)-2-hydroxycyclohexyl]amino}imidazo[1,2-b]pyridazine-3-carbonitrile] |
| 430 nM | 580 nM | N#Cc1cnc2c(Nc3ccc(C(=O)N4C[C@H]5CC[C@@H]4C5)c(OCC(F)F)n3)cc(N[C@@H]3CCCC[C@H]3O)nn12 [Example 34, 8-({5-[(1R,4S)-2-azabicyclo[2.2.1]heptane-2-carbonyl]-6-(2,2-difluoroethoxy)pyridin-2-yl}amino)-6-{[(1R,2R)-2-hydroxycyclohexyl]amino}imidazo[1,2-b]pyridazine-3-carbonitrile] |
| 310 nM | 160 nM | N#Cc1cnc2c(Nc3cccc(NC(=O)C4CC4)n3)cc(NCC3CC3)nn12 [Example 27, N-[6-({3-cyano-6-[(cyclopropylmethyl)amino]imidazo[1,2-b]pyridazin-8-yl}amino)pyridin-2-yl]cyclopropanecarboxamide] |
| 630 nM | 610 nM | N#Cc1cnc2c(Nc3ccc(C(=O)NCC4CCCO4)c(OCC(F)F)n3)cc(N[C@@H]3CCCC[C@H]3O)nn12 (stereo partly drawn) [Example 35, 6-[(3-cyano-6-{[(1R,2R)-2-hydroxycyclohexyl]amino}imidazo[1,2-b]pyridazin-8-yl)amino]-2-(2,2-difluoroethoxy)-N-[(oxolan-2-yl)methyl]pyridine-3-carboxamide] |
| 160 nM | 450 nM | CC(C)Oc1nc(Nc2cc(NC3CCOCC3)nn3c(C#N)cnc23)ccc1C(=O)N1CCCC1 [Example 43, 6-[(oxan-4-yl)amino]-8-{[6-(propan-2-yloxy)-5-(pyrrolidine-1-carbonyl)pyridin-2-yl]amino}imidazo[1,2-b]pyridazine-3-carbonitrile] |
| 220 nM | 390 nM | CC(C)(O)C(=O)Nc1cccc(Nc2cc(N[C@@H]3CCCC[C@H]3O)nn3c(C#N)cnc23)n1 [Example 9, N-{6-[(3-cyano-6-{[(1R,2R)-2-hydroxycyclohexyl]amino}imidazo[1,2-b]pyridazin-8-yl)amino]pyridin-2-yl}-2-hydroxy-2-methylpropanamide] |
| 90 nM | 130 nM | CC1(C)CCCN1C(=O)c1ccc(Nc2cc(N[C@@H]3CCCC[C@H]3O)nn3c(C#N)cnc23)nc1 [Example 16, 8-{[5-(2,2-dimethylpyrrolidine-1-carbonyl)pyridin-2-yl]amino}-6-{[(1R,2R)-2-hydroxycyclohexyl]amino}imidazo[1,2-b]pyridazine-3-carbonitrile] |
| 430 nM | 380 nM | N#Cc1cnc2c(Nc3cccc(N4CCOCC4=O)n3)cc(N[C@@H]3CCCC[C@H]3O)nn12 [Example 56, 6-{[(1R,2R)-2-hydroxycyclohexyl]amino}-8-{[6-(3-oxomorpholin-4-yl)pyridin-2-yl]amino}imidazo[1,2-b]pyridazine-3-carbonitrile] |
| 920 nM | 750 nM | CCC1(C)NC(=O)N(c2cccc(Nc3cc(N[C@@H]4CCCC[C@H]4O)nn4c(C#N)cnc34)n2)C1=O (stereo partly drawn) [Example 57, 8-{[6-(4-ethyl-4-methyl-2,5-dioxoimidazolidin-1-yl)pyridin-2-yl]amino}-6-{[(1R,2R)-2-hydroxycyclohexyl]amino}imidazo[1,2-b]pyridazine-3-carbonitrile] |
| 560 nM | 790 nM | N#Cc1cnc2c(Nc3cccc(N4CCN(S(=O)(=O)N5CCOCC5)CC4)n3)cc(N[C@@H]3CCCC[C@H]3O)nn12 [Example 39, 6-{[(1R,2R)-2-hydroxycyclohexyl]amino}-8-({6-[4-(morpholine-4-sulfonyl)piperazin-1-yl]pyridin-2-yl}amino)imidazo[1,2-b]pyridazine-3-carbonitrile] |
| 470 nM | 550 nM | CC(=O)NCc1ccc(-c2cccc(Nc3cc(N[C@@H]4CCCC[C@H]4O)nn4c(C#N)cnc34)n2)cc1 [Example 37, N-[(4-{6-[(3-cyano-6-{[(1R,2R)-2-hydroxycyclohexyl]amino}imidazo[1,2-b]pyridazin-8-yl)amino]pyridin-2-yl}phenyl)methyl]acetamide] |
| 280 nM | 690 nM | N#Cc1cnc2c(Nc3ccc(C(=O)N4CCCC4)c(N4CCCC4)n3)cc(N[C@@H]3CCCC[C@H]3O)nn12 [Example 2, 6-{[(1R,2R)-2-hydroxycyclohexyl]amino}-8-{[6-(pyrrolidin-1-yl)-5-(pyrrolidine-1-carbonyl)pyridin-2-yl]amino}imidazo[1,2-b]pyridazine-3-carbonitrile] |
| 610 nM | 810 nM | CC(C)(C)C(=O)Nc1cccc(Nc2cc(N[C@@H]3CCCC[C@H]3O)nn3c(C#N)cnc23)n1 [Example 7, N-{6-[(3-cyano-6-{[(1R,2R)-2-hydroxycyclohexyl]amino}imidazo[1,2-b]pyridazin-8-yl)amino]pyridin-2-yl}-2,2-dimethylpropanamide] |
| 650 nM | 820 nM | N#Cc1cnc2c(Nc3ccc(C(=O)N4CCCC4)c(N4CC(F)C4)n3)cc(N[C@H]3CCCC[C@@H]3O)nn12 [Example 15, 8-{[6-(3-fluoroazetidin-1-yl)-5-(pyrrolidine-1-carbonyl)pyridin-2-yl]amino}-6-{[(1S,2S)-2-hydroxycyclohexyl]amino}imidazo[1,2-b]pyridazine-3-carbonitrile] |
| 740 nM | 340 nM | CN(C)C1CCN(C(=O)c2ccc(Nc3cc(NC4CCOCC4)nn4c(C#N)cnc34)nc2OCC(F)F)C1 (centres unmarked) [Example 48, 8-{[6-(2,2-difluoroethoxy)-5-[3-(dimethylamino)pyrrolidine-1-carbonyl]pyridin-2-yl]amino}-6-[(oxan-4-yl)amino]imidazo[1,2-b]pyridazine-3-carbonitrile] |
| 190 nM | 460 nM | COc1cccc2ccc(Nc3cc(NC45CC6CC(CC(O)(C6)C4)C5)nn4c(C#N)cnc34)nc12 [Example 18, 6-[(3-hydroxyadamantan-1-yl)amino]-8-[(8-methoxyquinolin-2-yl)amino]imidazo[1,2-b]pyridazine-3-carbonitrile] |
| 710 nM | 340 nM | N#Cc1cnc2c(Nc3cccc(N)n3)cc(N[C@@H]3CCCC[C@H]3O)nn12 [Example 66, 8-[(6-aminopyridin-2-yl)amino]-6-{[(1R,2R)-2-hydroxycyclohexyl]amino}imidazo[1,2-b]pyridazine-3-carbonitrile] |

| SMILES | IC50 [1] | IC50 [2] |
| --- | --- | --- |
| CC(C)(C)Oc1nc(Nc2cc(NC3CCOCC3)nn3c(C#N)cnc23)ccc1C(=O)N1CCCC1 [Example 24, 8-{[6-(tert-butoxy)-5-(pyrrolidine-1-carbonyl)pyridin-2-yl]amino}-6-[(oxan-4-yl)amino]imidazo[1,2-b]pyridazine-3-carbonitrile] | 700 nM | 600 nM |
